Biological target: T1, catechol-O-methyltransferase (COMT) (Homo sapiens, UniProt P21964)
T1 construct: M51A variant) was expressed in HEK 293F cells
T1 sequence (P21964 52-271 limits assumed): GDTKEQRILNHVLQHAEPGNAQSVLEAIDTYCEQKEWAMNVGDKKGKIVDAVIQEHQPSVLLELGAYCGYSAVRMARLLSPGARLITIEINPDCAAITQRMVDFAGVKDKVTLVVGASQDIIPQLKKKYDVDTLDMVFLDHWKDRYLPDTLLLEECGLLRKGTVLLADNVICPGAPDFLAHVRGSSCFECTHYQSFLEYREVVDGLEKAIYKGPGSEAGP
Assay: COMT inhibition assay (HTRF, production of SAH from SAM)
Type: biochemical
Details: table does not say MB-COMT or S-COMT
Summary of the method: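 Membranes from HEK293F cells expressing MB-COMT (M51A variant) incubated with 20 μM SAM and 1.5 μM dopamine plus compound (10 concentrations) for 40 min at 37 °C; S-COMT (Val158) at 0.15 ng/well used 100 μM dopamine, 15 min. SAH measured by HTRF against a standard curve; pIC50 from 4-parameter logistic fit.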

Row | SMILES | Activity range (pIC50)
1 | CC(=O)Nc1cccc(C(C)N2CCn3cc(O)c(=O)cc3C2)c1 (stereo not drawn) [Example 96, N-{3-[1-(7-hydroxy-8-oxo-1,3,4,8-tetrahydro-2H-pyrido[1,2-a]pyrazin-2-yl)ethyl]phenyl}acetamide] | ++ (two plus signs (++) is associated with a pIC50 of from about 6 to 7)
2 | CC(c1cc(F)ccc1F)N1CCn2cc(O)c(=O)cc2C1 (stereo not drawn) [Example 97, 2-[1-(2,5-difluorophenyl)ethyl]-7-hydroxy-1,2,3,4-tetrahydro-8H-pyrido[1,2-a]pyrazin-8-one] | +++ (three plus signs (+++) is associated with a pIC50 of above about 7)
3 | CC(c1ccccc1F)N1CCn2cc(O)c(=O)cc2C1 (stereo not drawn) [Example 98, 2-[1-(2-fluorophenyl)ethyl]-7-hydroxy-1,2,3,4-tetrahydro-8H-pyrido[1,2-a]pyrazin-8-one] | ++ (two plus signs (++) is associated with a pIC50 of from about 6 to 7)
4 | CC(c1ccc(F)cc1)N1CCn2cc(O)c(=O)cc2C1 (stereo not drawn) [Example 99, 2-[1-(4-fluorophenyl)ethyl]-7-hydroxy-1,2,3,4-tetrahydro-8H-pyrido[1,2-a]pyrazin-8-one] | ++ (two plus signs (++) is associated with a pIC50 of from about 6 to 7)
5 | O=c1cc2n(cc1O)CCN(C(CO)c1ccccc1)C2 (stereo not drawn) [Example 100, 7-hydroxy-2-(2-hydroxy-1-phenylethyl)-1,2,3,4-tetrahydro-8H-pyrido[1,2-a]pyrazin-8-one] | + (a single plus (+) is associated with a pIC50 of from about 4.5 to 6)
6 | O=c1cc2n(cc1O)CCN(C(c1ccccc1)C(F)(F)F)C2 (stereo not drawn) [Example 101, 7-hydroxy-2-(2,2,2-trifluoro-1-phenylethyl)-1,2,3,4-tetrahydro-8H-pyrido[1,2-a]pyrazin-8-one] | +++ (three plus signs (+++) is associated with a pIC50 of above about 7)
7 | O=c1cc2n(cc1O)CCN(Cc1csc(-c3ccccc3)n1)C2 [Example 102, 7-hydroxy-2-[(2-phenyl-1,3-thiazol-4-yl)methyl]-1,2,3,4-tetrahydro-8H-pyrido[1,2-a]pyrazin-8-one] | ++ (two plus signs (++) is associated with a pIC50 of from about 6 to 7)
8 | Cc1nn(-c2ccccc2)c(C)c1CN1CCn2cc(O)c(=O)cc2C1 [Example 103, 2-[(3,5-dimethyl-1-phenyl-1H-pyrazol-4-yl)methyl]-7-hydroxy-1,2,3,4-tetrahydro-8H-pyrido[1,2-a]pyrazin-8-one] | ++ (two plus signs (++) is associated with a pIC50 of from about 6 to 7)
9 | O=c1cc2n(cc1O)CCN(C1(c3ccccc3)CC1)C2 [Example 104, 7-hydroxy-2-(1-phenylcyclopropyl)-3,4-dihydro-1H-pyrido[1,2-a]pyrazin-8-one] | +++ (three plus signs (+++) is associated with a pIC50 of above about 7)
10 | O=c1cc2n(cc1O)CCN(C(CF)c1ccccc1)C2 (stereo not drawn) [Example 105, 2-(2-fluoro-1-phenyl-ethyl)-7-hydroxy-3,4-dihydro-1H-pyrido[1,2-a]pyrazin-8-one] | +++ (three plus signs (+++) is associated with a pIC50 of above about 7)
11 | O=c1cc2n(cc1O)CCN(C1(c3ccccc3Cl)CC1)C2 [Example 106, 2-[1-(2-chlorophenyl)cyclopropyl]-7-hydroxy-3,4-dihydro-1H-pyrido[1,2-a]pyrazin-8-one] | +++ (three plus signs (+++) is associated with a pIC50 of above about 7)
12 | O=c1cc2n(cc1O)CCN(C(c1ccccc1)C(F)F)C2 (stereo not drawn) [Example 107, 2-(2,2-difluoro-1-phenyl-ethyl)-7-hydroxy-3,4-dihydro-1H-pyrido[1,2-a]pyrazin-8-one] | +++ (three plus signs (+++) is associated with a pIC50 of above about 7)
13 | O=c1cc2n(cc1O)CCN(c1nc3ccccc3s1)C2 [Example 108, 2-(1,3-benzothiazol-2-yl)-7-hydroxy-3,4-dihydro-1H-pyrido[1,2-a]pyrazin-8-one] | ++ (two plus signs (++) is associated with a pIC50 of from about 6 to 7)
14 | O=c1cc2n(cc1O)CCN(C1CC1c1ccccc1)C2 (stereo not drawn) [Example 109, 7-hydroxy-2-(2-phenylcyclopropyl)-3,4-dihydro-1H-pyrido[1,2-a]pyrazin-8-one] | ++ (two plus signs (++) is associated with a pIC50 of from about 6 to 7)
15 | O=c1cc2n(cc1O)CCN(c1cccc3ncccc13)C2 [Example 110, 7-hydroxy-2-(5-quinolyl)-3,4-dihydro-1H-pyrido[1,2-a]pyrazin-8-one] | + (a single plus (+) is associated with a pIC50 of from about 4.5 to 6)
16 | O=c1cc2n(cc1O)CCN(C1(c3ccccc3)COC1)C2 [Example 111, 7-hydroxy-2-(3-phenyloxetan-3-yl)-3,4-dihydro-1H-pyrido[1,2-a]pyrazin-8-one] | ++ (two plus signs (++) is associated with a pIC50 of from about 6 to 7)
17 | O=c1cc2n(cc1O)CCN(c1ccccc1)C2 [Example 112, 7-hydroxy-2-phenyl-1,2,3,4-tetrahydro-8H-pyrido[1,2-a]pyrazin-8-one] | +++ (three plus signs (+++) is associated with a pIC50 of above about 7)
18 | Cc1cccc(N2CCn3cc(O)c(=O)cc3C2)c1 [Example 113, 7-hydroxy-2-(3-methylphenyl)-1,2,3,4-tetrahydro-8H-pyrido[1,2-a]pyrazin-8-one] | ++ (two plus signs (++) is associated with a pIC50 of from about 6 to 7)
19 | O=c1cc2n(cc1O)CCN(c1ccccc1OC(F)(F)F)C2 [Example 114, 7-hydroxy-2-[2-(trifluoromethoxy)phenyl]-1,2,3,4-tetrahydro-8H-pyrido[1,2-a]pyrazin-8-one] | ++ (two plus signs (++) is associated with a pIC50 of from about 6 to 7)
20 | O=c1cc2n(cc1O)CCN(Cc1ccccc1)C2Cc1ccccc1 (stereo not drawn) [Example 115, 1,2-dibenzyl-7-hydroxy-1,2,3,4-tetrahydro-8H-pyrido[1,2-a]pyrazin-8-one] | ++ (two plus signs (++) is associated with a pIC50 of from about 6 to 7)
21 | O=c1cc2n(cc1O)CCN(Cc1ccccc1)C2c1ccccc1 (stereo not drawn) [Example 116, 2-benzyl-7-hydroxy-1-phenyl-1,2,3,4-tetrahydro-8H-pyrido[1,2-a]pyrazin-8-one] | +++ (three plus signs (+++) is associated with a pIC50 of above about 7)
22 | O=c1cc2n(cc1O)CCN(Cc1c(Cl)cccc1Cl)C2c1ccccc1 (stereo not drawn) [Example 117, 2-(2,6-dichlorobenzyl)-7-hydroxy-1-phenyl-1,2,3,4-tetrahydro-8H-pyrido[1,2-a]pyrazin-8-one] | +++ (three plus signs (+++) is associated with a pIC50 of above about 7)
23 | CCc1ccc(CN2CCn3cc(O)c(=O)cc3C2C(C)C)cc1 (stereo not drawn) [Example 120, 2-(4-ethylbenzyl)-7-hydroxy-1-(propan-2-yl)-1,2,3,4-tetrahydro-8H-pyrido[1,2-a]pyrazin-8-one] | +++ (three plus signs (+++) is associated with a pIC50 of above about 7)
24 | Cc1cccc(C)c1CN1CCn2cc(O)c(=O)cc2C1C (stereo not drawn) [Example 121, 2-(2,6-dimethylbenzyl)-7-hydroxy-1-methyl-1,2,3,4-tetrahydro-8H-pyrido[1,2-a]pyrazin-8-one] | +++ (three plus signs (+++) is associated with a pIC50 of above about 7)

From patent US10934283B2, “COMT inhibiting methods and compositions” (LIEBER INSTITUTE FOR BRAIN DEVELOPMENT, priority 2015, dated 2021)
